Bounds are passed on as bounds.

In general, melting point refers to the temperature of the solid-liquid transition. For `Cc1nc2cc3c(cc2s1)C1CNCC3C1.Cl` (stereo not shown), the melting point was in the range of 183 to 184 °C.

As to `Cl.c1nc2cc3c(cc2[nH]1)C1CNCC3C1` (stereo not shown), the melting point is > 250 °C.

As for `Cc1nc2cc3c(cc2n1C)C1CNCC3C1.Cl` (stereo not shown), the melting point is 225 to 230 °C.

On to `CC(C)Cn1cnc2cc3c(cc21)C1CNCC3C1.Cl` (stereo not shown), for which the melting point was 147 to 150 °C.

`Cl.Fc1ccc2c(c1)C1CNCC2C1` (stereo not shown) registered a melting point of 260 to 262 °C.

`Cc1nc2cc3c(cc2n1CC(C)C)C1CNCC3C1.Cl` (stereo not shown) yielded a melting point of 129 to 130 °C.

The compound `Cl.c1ccc(-n2cnc3cc4c(cc32)C2CNCC4C2)cc1` (stereo not shown) came in with a melting point of 210 to 213 °C.

Take `Cc1nc2cc3c(cc2n1-c1ccccc1)C1CNCC3C1.Cl` (stereo not shown): the melting point was > 250 °C.

With `CN1CC2CC(C1)c1cc3nccnc3cc12.Cl`, the melting point is > 250 °C.

`Cc1nc2cc3c(cc2o1)C1CNCC3C1.Cl` (stereo not shown): the melting point is > 250 °C.

In turn, `Cc1ccc2c(c1)C1CNCC2C1.Cl` (stereo not shown) displayed a melting point of 254 to 255 °C.

For `Cl.O=C(Nc1cc2c(cc1O)C1CNCC2C1)c1ccccc1F` (stereo not shown), the melting point lay within 125 to 130 °C.

Take `Cl.N#Cc1ccc2c(c1)C1CNCC2C1` (stereo not shown): the melting point was 268 to 273 °C.

With `CC(=O)c1ccc2c(c1)C1CNCC2C1.Cl` (stereo not shown), the melting point lay within 198 to 202 °C.

In the case of `Cl.Clc1cc2c(cc1Cl)C1CNCC2C1`, the melting point fell in the range of 283 to 291 °C.

`Cl.c1ccc(-c2cccc3c2C2CNCC3C2)cc1` (stereo not shown): the melting point was in the range of 262 to 265 °C.

For the compound `Cl.Oc1cccc2c1C1CNCC2C1` (stereo not shown), the melting point was 253 to 255 °C.

In turn, `Cl.Fc1cc2c(cc1F)C1CNCC2C1` came in with a melting point of 301 to 303 °C.

`CC(C)c1nc2cc3c(cc2o1)C1CNCC3C1.Cl` (stereo not shown) gave a melting point of 249 to 251 °C.

Consider `Cl.c1cnc2cc3c(cc2c1)C1CNCC3C1` (stereo not shown), for which the melting point was 260 °C (dec.).

On to `Cl.FC(F)(F)c1cccc2c1C1CNCC2C1` (stereo not shown), for which the melting point lay in the range of 275 to 277 °C.

Regarding `Cc1ccc2cc3c(cc2n1)C1CNCC3C1.Cl` (stereo not shown), the melting point was > 300 °C (dec.).

Consider `CCc1cnc2cc3c(cc2c1)C1CNCC3C1.Cl` (stereo not shown), for which the melting point is 288 to 291 °C (dec.).

`Cl.O=c1ccc2cc3c(cc2[nH]1)C1CNCC3C1` (stereo not shown): the melting point is 300 °C (dec.).

In turn, `Cl.Fc1cccc2c1C1CNCC2C1` (stereo not shown) yielded a melting point of 269 to 271 °C.

The compound `Cl.O=[N+]([O-])c1ccc2c(c1)C1CNCC2C1` (stereo not shown) registered a melting point of 265 to 270 °C.

As for `Cl.Nc1ccc2c(c1)C1CNCC2C1` (stereo not shown), the melting point was 189 to 192 °C.

`CC(=O)Nc1ccc2c(c1)C1CNCC2C1.Cl` (stereo not shown) came in with a melting point of 225 to 230 °C.

Source of the values: patent US7205300B2, “Aryl fused azapolycyclic compounds” (Pfizer Inc, priority 1997, dated 2007).
